Data published in US20260137819A1 (Radionetics Oncology, Inc., priority 2022, published 2026).

target: T1, human follicle-stimulating hormone receptor (FSHR) (Homo sapiens, UniProt P23945); experiment: Measurement of agonist cAMP production by activation of human FSHR; assay type: cell-based; conditions: CHO-K1 human FSHR cells, 30 minutes at 37° C., HTRF cAMP kit; read-out: hFSHR Agonist cAMP EC50
T1 construct: host or cells: CHO-K1
T1 sequence (P23945 18-695): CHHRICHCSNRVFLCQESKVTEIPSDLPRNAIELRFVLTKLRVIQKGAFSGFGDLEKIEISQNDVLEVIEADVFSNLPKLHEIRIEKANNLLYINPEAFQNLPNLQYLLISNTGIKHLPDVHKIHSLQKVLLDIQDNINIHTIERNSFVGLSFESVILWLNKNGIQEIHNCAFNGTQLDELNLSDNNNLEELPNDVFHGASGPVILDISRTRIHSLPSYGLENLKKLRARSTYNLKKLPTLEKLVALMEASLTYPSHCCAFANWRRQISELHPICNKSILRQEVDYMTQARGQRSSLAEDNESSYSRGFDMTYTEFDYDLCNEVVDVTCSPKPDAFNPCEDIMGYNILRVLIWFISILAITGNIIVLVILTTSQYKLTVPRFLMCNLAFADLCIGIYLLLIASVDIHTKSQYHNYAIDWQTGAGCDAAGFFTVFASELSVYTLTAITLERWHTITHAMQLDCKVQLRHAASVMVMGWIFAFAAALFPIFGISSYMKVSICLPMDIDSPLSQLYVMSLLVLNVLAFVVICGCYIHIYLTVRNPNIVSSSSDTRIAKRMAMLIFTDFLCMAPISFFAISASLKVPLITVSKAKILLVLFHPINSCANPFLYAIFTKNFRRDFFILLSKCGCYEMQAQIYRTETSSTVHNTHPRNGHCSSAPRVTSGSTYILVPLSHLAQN
Procedure, shortened: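 cAMP output was measured by HTRF after 30 min at 37 °C agonist exposure (0–10,000 nM final) in stably FSHR-transfected CHO-K1 cells. Lysate cAMP was read off a standard curve and fitted to obtain half-maximal EC50.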

Structure (SMILES)	EC50
COc1cc2c(cc1-c1cccc(NC(=O)CCC(=O)N(CCOCCOCCOCCOCCOCCC(=O)O)C3CCN(C(=O)CN4CCN(CC(=O)O)CCN(CC(=O)O)CCN(CC(=O)O)CC4)CC3)c1)-c1c(c(C(=O)N3CCOCC3(C)C)nn1-c1cc(Cl)cc(Cl)c1)CO2 [Compound 45, 2,2′,2″-(10-(2-(4-(N-(17-carboxy-3,6,9,12,15-pentaoxaheptadecyl)-4-((3-(1-(3,5dichlorophenyl)-3-(3,3-dimethylmorpholine-4-carbonyl)-7-methoxy-1,4-dihydrochromeno|4,3-clpyrazol-8-yl)phenyl)amino)-4-oxobutanamido)piperidin-1-yl)-2-oxoethyl)-1,4,7,10-tetraazacyclododecane-1,4,7-triyl)triacetic acid]	< 10 nM
COc1cc2c(cc1-c1cccc(NC(=O)CCC(=O)N(CC(=O)O)C3CCN(C(=O)CN4CCN(CC(=O)O)CCN(CC(=O)O)CCN(CC(=O)O)CC4)CC3)c1)-c1c(c(C(=O)N3CCOCC3(C)C)nn1-c1cc(Cl)cc(Cl)c1)CO2 [Compound 46, 2,2′,2″-(10-(2-(4-(N-(carboxymethyl)-4-((3-(1-(3,5-dichlorophenyl)-3-(3,3dimethylmorpholine-4-carbonyl)-7-methoxy-1,4-dihydrochromeno|4,3-clpyrazol-8-yl)phenyl)amino)-4-oxobutanamido)piperidin-1-yl)-2-oxoethyl)-1,4,7,10-tetraazacyclododecane-1,4,7-trivl)triacetic acid]	10 to 100 nM
COc1cc2c(cc1-c1cccc(NC(=O)CCOCC(COCCC(=O)O)(COCCC(=O)O)NC(=O)CN3CCN(CC(=O)O)CCN(CC(=O)O)CCN(CC(=O)O)CC3)c1)-c1c(c(C(=O)N3CCOCC3(C)C)nn1-c1cc(Cl)cc(Cl)c1)CO2 [Compound 47, 2,2′,2″-(10-(2-((1,3-bis(2-carboxyethoxy)-2-((3-((3-(1-(3,5-dichlorophenyl)-3(3,3-dimethylmorpholine-4-carbonyl)-7-methoxy-1,4-dihydrochromeno|4,3-clpyrazol-8-yl)phenyl)amino)-3-oxopropoxy)methyl)propan-2-yl)amino)-2-oxoethyl)-1,4,7,10-tetraazacyclododecane-1,4,7-triyl)triacetic acid]	10 to 100 nM
COc1cc2c(cc1-c1cncc(NC(=O)CCC(=O)NC[C@H](NC(=O)CN3CCN(CC(=O)O)CCN(CC(=O)O)CCN(CC(=O)O)CC3)C(=O)N3CCN(CCS(=O)(=O)O)CC3)c1)-c1c(c(C(=O)N3CCOCC3(C)C)nn1-c1cc(F)cc(F)c1)CO2 [Compound 49, (S)-2,2′,2″-(10-(2-((3-(4-((5-(1-(3,5-difluorophenyl)-3-(3,3-dimethylmorpholine-4-carbonyl)-7-methoxy-1,4-dihydrochromeno[4,3-c]pyrazol-8-yl)pyridin-3-yl)amino)-4-oxobutanamido)-1-oxo-1-(4-(2-sulfoethyl)piperazin-1-yl)propan-2-yl)amino)-2-oxoethyl)-1,4,7,10-tetraazacyclododecane-1,4,7-triyl)triacetic acid--formic acid (1/1)]	> 100 nM

Next, values leading:

EC50	Structure (SMILES)
< 10 nM	COc1cc2c(cc1-c1cccc(NC(=O)CCC(=O)NCCCC[C@@H](NC(=O)[C@@H](CC(=O)O)NC(=O)[C@@H](CC(=O)O)NC(=O)CCNC(=O)CN3CCN(CC(=O)O)CCN(CC(=O)O)CCN(CC(=O)O)CC3)C(N)=O)c1)-c1c(c(C(=O)N3CCOCC3(C)C)nn1-c1cc(Cl)cc(Cl)c1)CO2 [Compound 51, 2,2′,2″-(10-((8R,11R,14R)-14-carbamoyl-8,11-bis(carboxymethyl)-23-((3-(1(3,5-dichlorophenyl)-3-(3,3-dimethylmorpholine-4-carbonyl)-7-methoxy-1,4-dihydrochromeno[4,3-c]pyrazol-8-yl)phenyl)amino)-2,6,9,12,20,23-hexaoxo-3,7,10,13,19-pentaazatricosyl)-1,4,7,10-tetraazacyclododecane-1,4,7-triyl)triacetic acid]
< 10 nM	COc1cc2c(cc1-c1cncc(NC(=O)CCOCCOCCNC(=O)CN3CCN(CC(=O)O)CCN(CC(=O)O)CCN(CC(=O)O)CC3)c1)-c1c(c(C(=O)N3CCOCC3(C)C)nn1-c1cc(Cl)cc(Cl)c1)CO2 [Compound 52, 2,2′,2″-(10-(2-((2-(2-(3-((5-(1-(3,5-dichlorophenyl)-3-(3,3-dimethylmorpholine-4-carbonyl)-7-methoxy-1,4-dihydrochromeno[4,3-c]pyrazol-8-yl)pyridin-3-yl)amino)-3-oxopropoxy)ethoxy)ethyl)amino)-2-oxoethyl)-1,4,7,10-tetraazacyclododecane-1,4,7-triyl)triacetic acid--2,2,2-trifluoroacetic acid (1/1)]
< 10 nM	COc1cc2c(cc1-c1cncc(NC(=O)CCOCCNC(=O)CN3CCN(CC(=O)O)CCN(CC(=O)O)CCN(CC(=O)O)CC3)c1)-c1c(c(C(=O)N3CCOCC3(C)C)nn1-c1cc(Cl)cc(Cl)c1)CO2 [Compound 53, 2,2′,2″-(10-(2-((2-(3-((5-(1-(3,5-dichlorophenyl)-3-(3,3-dimethylmorpholine-4-carbonyl)-7-methoxy-1,4-dihydrochromeno[4,3-c]pyrazol-8-yl)pyridin-3-yl)amino)-3-oxopropoxy)ethyl)amino)-2-oxoethyl)-1,4,7,10-tetraazacyclododecane-1,4,7-triyl)triacetic acid--2,2,2-trifluoroacetic acid (1/1)]
< 10 nM	COc1cc2c(cc1-c1cncc(NC(=O)CCOCCOCCNC(=O)C3OC(CNC(=O)CN4CCN(CC(=O)O)CCN(CC(=O)O)CCN(CC(=O)O)CC4)C(O)C(O)C3O)c1)-c1c(c(C(=O)N3CCOCC3(C)C)nn1-c1cc(Cl)cc(Cl)c1)CO2 [Compound 54, 2,2′,2″-(10-(2-((((2S,3R,4R,5R,6S)-6-((2-(2-(3-((5-(1-(3,5-dichlorophenyl)-3-(3,3-dimethylmorpholine-4-carbonyl)-7-methoxy-1,4-dihydrochromeno[4,3-c]pyrazol-8-yl)pyridin-3-yl)amino)-3-oxopropoxy)ethoxy)ethyl)carbamoyl)-3,4,5-trihydroxytetrahydro-2H-pyran-2-yl)methyl)amino)-2-oxoethyl)-1,4,7,10-tetraazacyclododecane-1,4,7-triyl)triacetic acid--2,2,2-trifluoroacetic acid (1/1)]
10 to 100 nM	COc1cc2c(cc1-c1cncc(NC(=O)CCOCCOCCNC(=O)[C@H]3O[C@@H](CNC(=O)CN4CCN(CC(=O)O)CCN(CC(=O)O)CCN(CC(=O)O)CC4)[C@H](O)[C@@H](O)[C@H]3O)c1)-c1c(c(C(=O)N3CCOCC3(C)C)nn1-c1cc(Cl)cc(Cl)c1)CO2 [Compound 54A, indium (III) 2,2′,2″-(10-(2-((((2S,3R,4R,5R,6S)-6-((2-(2-(3-((5-(1-(3,5-dichlorophenyl)-3-(3,3-dimethylmorpholine-4-carbonyl)-7-methoxy-1,4-dihydrochromeno[4,3-c]pyrazol-8-yl)pyridin-3-yl)amino)-3-oxopropoxy)ethoxy)ethyl)carbamoyl)-3,4,5-trihydroxytetrahydro-2H-pyran-2-yl)methyl)amino)-2-oxoethyl)-1,4,7,10-tetraazacyclododecane-1,4,7-triyl)triacetate]
10 to 100 nM	COc1cc2c(cc1-c1cncc(NC(=O)CNC(=O)CC[C@@H](NC(=O)CNC(=O)CN3CCN(CC(=O)O)CCN(CC(=O)O)CCN(CC(=O)O)CC3)C(=O)O)c1)-c1c(c(C(=O)N3CCOCC3(C)C)nn1-c1cc(Cl)cc(Cl)c1)CO2 [Compound 55, (R)-2,2′,2″-(10-(2-((2-((1-carboxy-4-((2-((5-(1-(3,5-dichlorophenyl)-3-(3,3-dimethylmorpholine-4-carbonyl)-7-methoxy-1,4-dihydrochromeno[4,3-c]pyrazol-8-yl)pyridin-3-yl)amino)-2-oxoethyl)amino)-4-oxobutyl)amino)-2-oxoethyl)amino)-2-oxoethyl)-1,4,7,10-tetraazacyclododecane-1,4,7-triyl)triacetic acid--2,2,2-trifluoroacetic acid (1/1)]

same assay, conditions: hFSHR Agonist cAMP EC50, CHO-K1 human FSHR cells, 30 minutes at 37° C., HTRF cAMP kit

Structure (SMILES)	EC50
COc1cc2c(cc1-c1cncc(NC(=O)CCNC(=O)[C@@H](CCCCNC(=O)CN3CCN(CC(=O)O)CCN(CC(=O)O)CCN(CC(=O)O)CC3)NC(=O)CN3CCN(CCS(=O)(=O)O)CC3)c1)-c1c(c(C(=O)N3CCOCC3(C)C)nn1-c1cc(F)cc(F)c1)CO2 [Compound 50, (R)-2,2′,2″-(10-(2-((6-((3-((5-(1-(3,5-difluorophenyl)-3-(3,3-dimethylmorpholine-4-carbonyl)-7-methoxy-1,4-dihydrochromeno[4,3-c]pyrazol-8-yl)pyridin-3-yl)amino)-3-oxopropyl)amino)-6-oxo-5-(2-(4-(2-sulfoethyl)piperazin-1-yl)acetamido)hexyl)amino)-2-oxoethyl)-1,4,7,10-tetraazacyclododecane-1,4,7-triyl)triacetic acid--formic acid (1/1)]	> 100 nM
